Source: patent US20220332763A1, “FUSED POLYPEPTIDE AND USE THEREOF” (NANJING ANJI BIOLOGICAL TECHNOLOGY CO., LTD., priority 2019, published 2022)

What was measured:
Conditions in all cases: Homo sapiens, 48 h, read-out: Inhibitory effect (%) on tumor growth
Head and neck cancer = assay: cells
Procedure: (§1) A plurality of types of human tumor cells were cultured in a 5% CO2 incubator at 37° C. and digested with trypsin when the density was 90% or above. The cells were resuspended in a culture solution and counted, and the cell concentration was adjusted to 2×10^4 cells/mL. The cell suspension was inoculated into a 96-well plate with 100 μL per well, and then cultured overnight in a 5% CO2 incubator at 37° C. After the cells completely adhered to the wall, each polypeptide according to the present invention was added as an administration group, and the culture solution without any drug was used as a blank control group. The solutions were diluted to 1 μmol/L by using a diluent. Each diluent was separately added to the 96-well plate with 100 per well, and the cells continued to be cultured in a 5% CO2 incubator for 48 hours at 37° C. Then 20 μL of MTT was added, and the cells continued to be cultured for 4 hours. The medium was sucked, and 100 μL of DMSO was added to each well for dissolution. Absorbance was measured by a microplate reader at a detection wavelength of 570 nm and a reference wavelength of 630 nm, and the growth inhibition rate was calculated. The formula was as follows: tumor growth inhibition rate (%)=(1−absorbance of the administration group/absorbance of the blank group)*100%. The experiment was repeated independently for 3 times.

Brain cancer = assay: cells
Procedure: as §1

Esophageal cancer = assay: cells
Procedure: as §1

Pancreatic cancer = assay: cells
Procedure: as §1

Thyroid cancer = assay: cells
Procedure: as §1

Liver cancer = assay: cells
Procedure: as §1

Breast cancer = assay: cells
Procedure: as §1

Gastric cancer = assay: cells
Procedure: as §1

Kidney cancer = assay: cells
Procedure: as §1

Colorectal cancer = assay: cells
Procedure: as §1

Ovarian cancer = assay: cells
Procedure: as §1

Cervical cancer = assay: cells
Procedure: as §1

Prostate cancer = assay: cells
Procedure: as §1

Melanoma = assay: cells
Procedure: as §1

Hemangioma = assay: cells
Procedure: as §1

Sarcoma = assay: cells
Procedure: as §1

Lung cancer = assay: cells
Procedure: as §1

Uterus cancer = assay: tissue or blood
Procedure: as §1

## CC(=O)O[C@@]12CO[C@@H]1C[C@H](O)[C@@]1(C)C(=O)[C@H](O)C3=C(C)[C@@H](OC(=O)[C@H](O)[C@@H](NC(=O)OC(C)(C)C)c4ccccc4)C[C@@](O)([C@@H](OC(=O)c4ccccc4)[C@H]21)C3(C)C [Docetaxel]
Head and neck cancer
  inhibition at 1 µM: 62.5 ± 2.12%
Brain cancer
  inhibition at 1 µM: 68.1 ± 10.3%
Esophageal cancer
  inhibition at 1 µM: 64.4 ± 8.06%
Pancreatic cancer
  inhibition at 1 µM: 76.7 ± 10.1%
Thyroid cancer
  inhibition at 1 µM: 73.2 ± 19.3%
Liver cancer
  inhibition at 1 µM: 74.2 ± 11.7%
Breast cancer
  inhibition at 1 µM: 65.1 ± 10.7%
Gastric cancer
  inhibition at 1 µM: 74.2 ± 6.38%
Kidney cancer
  inhibition at 1 µM: 75.5 ± 10.2%
Colorectal cancer
  inhibition at 1 µM: 53.5 ± 10.4%
Ovarian cancer
  inhibition at 1 µM: 62.8 ± 20.2%
Cervical cancer
  inhibition at 1 µM: 66.6 ± 11.3%
Prostate cancer
  inhibition at 1 µM: 78.4 ± 4.21%
Melanoma
  inhibition at 1 µM: 68.4 ± 6.23%
Hemangioma
  inhibition at 1 µM: 78.8 ± 6.16%
Sarcoma
  inhibition at 1 µM: 62.5 ± 8.75%
Lung cancer
  inhibition at 1 µM: 73.3 ± 7.03%
Uterus cancer
  inhibition at 1 µM: 57.2 ± 12.3%
